The IC50 is the concentration that gives 50% inhibition.

This data set is described as follows: Reversal of P-gp-mediated multidrug resistance in human MCF7/Dox cells assessed as potentiation of doxorubicin-induced cytotoxicity by measuring doxorubicin IC50 at 12.5 uM after 48 hrs by MTT assay (Rvb = 51.19 +/- 0.95 microM). On the technique in general: Formazan colour is commonly taken as a measure of viable cells.
For `COc1cc(O)c(C(=O)/C=C/c2cccc(N3CCN(C)CC3)c2)c(OC)c1`, the IC50 amounted to 18 µM.
As for `COc1ccc(C(=O)/C=C/c2cccc(N3CCNCC3)c2)c(OC)c1`, the figure is 4.9 µM; as for `COc1cc(O)c(C(=O)/C=C/c2cccc(N3CCOCC3)c2)c(OC)c1`, 18.8 µM; as for `COc1cc(O)c(C(=O)/C=C/c2cccc(N3CCN(C(=O)c4ccc(OC)c(OC)c4)CC3)c2)c(OC)c1`, 42.3 µM.
As for `COc1cc(OC)c(C(=O)/C=C/c2ccc(N(C)C)cc2)c(O)c1CC=C(C)C`, the figure is 17.4 µM; as for `COc1cc(OC)c(C(=O)/C=C/c2cccc(N3CCNCC3)c2)c(O)c1CC=C(C)C`, 1.02 µM.
In the case of `CCc1c(OC)cc(OC)c(C(=O)/C=C/c2cccc(N3CCNCC3)c2)c1O` it was 4.69 µM; in that of `COc1c(C)c(O)c(C)c(O)c1C(=O)/C=C/c1ccccc1` [CHEBI:70658], 24.7 µM.
As to `CCCCCc1c(OC)cc(OC)c(C(=O)/C=C/c2cccc(N3CCNCC3)c2)c1O`, the IC50 worked out at 23.6 µM.
Turning to `COc1cccc(/C=C/C(=O)c2c(OC)cc(OC)c(CC=C(C)C)c2O)c1`, the IC50 turned out to be 7.86 µM.
For `COc1cc(O)c(C(=O)/C=C/c2cccc(N3CCNCC3)c2)c(OC)c1`, the IC50 was determined as 2.63 µM.
As for `COc1cc(OC)c(C(=O)/C=C/c2ccc(N3CCN(C(=O)OC(C)(C)C)CC3)cc2)c(O)c1CC=C(C)C`, the IC50 was found to be 52.2 µM.
In the case of `COc1cc(OC)c(C(=O)/C=C/c2ccc(Cl)cc2)c(O)c1CC=C(C)C` it was 21.8 µM; in that of `COc1cc(OC)c(C(=O)/C=C/c2cccc(F)c2)c(O)c1CC=C(C)C`, 12.6 µM; in that of `COc1cc(OC)c(C(=O)/C=C/c2cccc(N3CCN(C(=O)OC(C)(C)C)CC3)c2)c(O)c1CC=C(C)C`, 20.1 µM.
With `COc1ccc(/C=C/C(=O)c2c(OC)cc(OC)c(CC=C(C)C)c2O)cc1`, the IC50 was 20.7 µM.
In the case of `COc1cc(OC)c(C(=O)/C=C/c2ccc(OC)c(OC)c2OC)c(O)c1CC=C(C)C` it was 27.5 µM; in that of `CCCCc1c(OC)cc(OC)c(C(=O)/C=C/c2cccc(N3CCNCC3)c2)c1O`, 3.57 µM.
`CCCc1c(OC)cc(OC)c(C(=O)/C=C/c2cccc(N3CCNCC3)c2)c1O`: the half-inhibitory concentration (IC50) came out at 5.12 µM.
For `COc1cc(O)c(C(=O)/C=C/c2ccc(N3CCN(C(=O)OC(C)(C)C)CC3)cc2)c(OC)c1`, the IC50 amounted to 59.2 µM.
As for `COc1cc(OC)c(C(=O)/C=C/c2cccc(Cl)c2)c(O)c1CC=C(C)C`, the figure is 9.39 µM.
As for `COc1cc(OC)c(C(=O)/C=C/c2cccc(N3CCOCC3)c2)c(O)c1CC=C(C)C`, the figure is 31.6 µM; as for `COc1cc(OC)c(C(=O)/C=C/c2cccc(C(F)(F)F)c2)c(O)c1CC=C(C)C`, 6.26 µM.

(Values after BindingDB's records for doi:10.1016/j.ejmech.2019.05.053 (East China University of Science and Technology, 2019).)
